According to patent US4263427A, “Monensin urethane derivatives” (priority 1979, dated 1981):
In brackets after ≈: the same amount, converted by molar mass. Where two headings read alike, the source gives them in different places.

Assays:
Bacillus sp. TA 27860 = assay: Minimum Inhibitory Concentration, agarwell diffusion assay (Table 6); format: cell-based; details: for MIC: Bacillus
From the text: (§1) (a) Lowest twofold dilution giving zone of inhibition in the agarwell
(§2) (b) NRRL collection number, all the rest ate ATCC numbers.

[1] = test system: Streptococcus cellulosac 3313; assay: as above; format: cell-based; details: for MIC: Streptococcus, 3313, read-out: Minimum Inhibitory Concentration, Streptococcus cellulosac 3313
From the text: as §1, §2

MycoBacterium phiel 355 = assay: as above; format: cell-based; details: for MIC: Mycobacterium, 355, read-out: Minimum Inhibitory Concentration, MycoBacterium phiel 355
From the text: as §1, §2

Bacillus megaterium 8CU = assay: as above; format: cell-based; details: for MIC: Priestia megaterium, 8CU, read-out: Minimum Inhibitory Concentration, Bacillus megaterium 8CU
From the text: as §1, §2

[2] = test system: Streptococcus faecium 8043; assay: as above; format: cell-based
From the text: as §1, §2

[3] = test system: Paceilomyces variotl 25820; assay: as above; format: cell-based; details: for MIC: read-out: Minimum Inhibitory Concentration, Paceilomyces variotl 25820
From the text: as §1, §2

Staph. aureus 6538 = assay: as above; format: cell-based; details: for MIC: Staphylococcus aureus, 6538, read-out: Minimum Inhibitory Concentration, Staph. aureus 6538
From the text: as §1, §2

Sarcina lutca 9341 = assay: as above; format: cell-based; details: for MIC: Sarcina, 9341, read-out: Minimum Inhibitory Concentration, Sarcina lutca 9341
From the text: as §1, §2

Bacillus sp. E 27859 = assay: as above; format: cell-based; details: for MIC: Bacillus
From the text: as §1, §2

Bacillus subtilis 583 = assay: as above; format: cell-based
From the text: as §1, §2

Treponema hyodysenteriae = assay: Activity against Treponema hyodysenteriae (MIC, blood agar plates); format: cell-based; details: 42° C., anaerobic
From the text: Testing for activity against Treponema hyodysenteriae, a cause of swine dysentery consisted of inoculation of blood agar plates containing a series of two or fourfold dilutions of the monensin urethane derivatives with tenfold dilutions of the T. hyodysenteriae strain.

[4] = Oral antihypertensive activity: blood pressure and heart rate (Table 9); format: in vivo; details: oral dose 10 mg/kg
From the text: Compounds of formula I, and their pharmaceutically acceptable salts are orally active as antihypertensive agents.

rumen fluid = details: control 100
[5] = SP.TA27860, Bacillus sp. TA 27860, read-out: Minimum Inhibitory Concentration
[6] = Enterococcus faecium, 8043, Streptococcus faecium 8043, read-out: Minimum Inhibitory Concentration
[7] = SP.E27859, Bacillus sp. E 27859, read-out: Minimum Inhibitory Concentration
[8] = Bacillus subtilis, 583, Bacillus subtilis 583 (NRRL), read-out: Minimum Inhibitory Concentration

| Compound | MIC (Bacillus sp. TA 27860; [5]) | MIC [1] | MIC (MycoBacterium phiel 355) | MIC (Bacillus megaterium 8CU) | MIC [2, 6] | MIC [3] | MIC (Staph. aureus 6538) | MIC (Sarcina lutca 9341) | MIC (Bacillus sp. E 27859; [7]) | MIC (Bacillus subtilis 583; [8]) | also measured |
| --- | --- | --- | --- | --- | --- | --- | --- | --- | --- | --- | --- |
| CCC1(C2OC(C3OC(O)(COC(=O)Nc4ccc(C(C)=O)cc4)C(C)CC3C)CC2C)CCC(C2(C)CCC3(CC(O)C(C)C(C(C)C(OC)C(C)C(=O)O)O3)O2)O1 (stereo not drawn) [Monensin A,4-(methylcarbonyl) phenylurethane] | 0.8 µg/mL (≈ 0.961 µM) | 3.1 µg/mL (≈ 3.73 µM) | 6.3 µg/mL (≈ 7.57 µM) | 1.6 µg/mL (≈ 1.92 µM) | 0.8 µg/mL (≈ 0.961 µM) | 6.3 µg/mL (≈ 7.57 µM) | 1.6 µg/mL (≈ 1.92 µM) | 1.6 µg/mL (≈ 1.92 µM) | 0.2 µg/mL (≈ 0.24 µM) | 1.6 µg/mL (≈ 1.92 µM) |  |
| CCC1(C2OC(C3OC(O)(COC(=O)Nc4ccc(OC)cc4)C(C)CC3C)CC2C)CCC(C2(C)CCC3(CC(O)C(C)C(C(C)C(OC)C(C)C(=O)O)O3)O2)O1 (stereo not drawn) [Monensin A,4-methoxyphenylurethane] |  | 6.3 µg/mL (≈ 7.68 µM) | 1.6 µg/mL (≈ 1.95 µM) | 0.8 µg/mL (≈ 0.976 µM) |  |  | 1.6 µg/mL (≈ 1.95 µM) | 1.6 µg/mL (≈ 1.95 µM) |  |  | MIC (Bacillus sp. TA 27860; SP.TA27860, read-out: Minimum Inhibitory Concentration, Bacillus sp. TA 27860): 6.3 µg/mL (≈ 7.68 µM); MIC ([2]; Enterococcus faecium, 8043, read-out: Minimum Inhibitory Concentration, Streptococcus faecium 8043): 0.4 µg/mL (≈ 0.488 µM); MIC (Bacillus sp. E 27859; SP.E27859, read-out: Minimum Inhibitory Concentration, Bacillus sp. E 27859): 0.1 µg/mL (≈ 0.122 µM); MIC (Bacillus subtilis 583; Bacillus subtilis, 583, read-out: Minimum Inhibitory Concentration, Bacillus subtilis 583 (NRRL)): 0.8 µg/mL (≈ 0.976 µM) |
| CCC1(C2OC(C3OC(O)(COC(=O)NC4CC4c4ccccc4)C(C)CC3C)CC2C)CCC(C2(C)CCC3(CC(O)C(C)C(C(C)C(OC)C(C)C(=O)O)O3)O2)O1 (stereo not drawn) [Monensin A, 2-(phenyl)-cyclopropyl urethane] | 0.4 µg/mL (≈ 0.482 µM) | 12.5 µg/mL (≈ 15.1 µM) | 3.1 µg/mL (≈ 3.73 µM) | 0.8 µg/mL (≈ 0.964 µM) | 0.2 µg/mL (≈ 0.241 µM) | 6.3 µg/mL (≈ 7.59 µM) | 3.1 µg/mL (≈ 3.73 µM) | 0.8 µg/mL (≈ 0.964 µM) | 0.4 µg/mL (≈ 0.482 µM) | 0.8 µg/mL (≈ 0.964 µM) | MIC (Treponema hyodysenteriae; Brachyspira hyodysenteriae, 48 h): 0.4 µg/mL (≈ 0.482 µM) |
| CCC1(C2OC(C3OC(O)(COC(=O)NCCc4ccccc4)C(C)CC3C)CC2C)CCC(C2(C)CCC3(CC(O)C(C)C(C(C)C(OC)C(C)C(=O)O)O3)O2)O1 (stereo not drawn) [Monensin A, 2-phenethylurethane] | 1.6 µg/mL (≈ 1.96 µM) | 12.5 µg/mL (≈ 15.3 µM) | 6.3 µg/mL (≈ 7.7 µM) | 0.8 µg/mL (≈ 0.978 µM) | 0.4 µg/mL (≈ 0.489 µM) | 12.5 µg/mL (≈ 15.3 µM) | 6.3 µg/mL (≈ 7.7 µM) | 1.6 µg/mL (≈ 1.96 µM) | 0.8 µg/mL (≈ 0.978 µM) | 1.6 µg/mL (≈ 1.96 µM) | Day of Maximum Change, Blood Pressure [4]: 5 days; Day of Maximum Change, Heart Rate [4]: 2 days; Maximum Change (%), Blood Pressure [4]: 15%; Maximum Change (%), Heart Rate [4]: 18%; Mean Blood Pressure at time of maximum effect [4]: 189 mm Hg; Mean Blood Pressure before treatment [4]: 223 mm Hg; Rate of Gas Production, Percent Production of Control Fermentations (rumen fluid; 50 ppm): 101.7%; Total VFA, Percent Production of Control Fermentations (rumen fluid; 50 ppm): 84.3% |
| CCC1(C2OC(C3OC(O)(COC(=O)Nc4ccc(Oc5ccccc5)cc4)C(C)CC3C)CC2C)CCC(C2(C)CCC3(CC(O)C(C)C(C(C)C(OC)C(C)C(=O)O)O3)O2)O1 (stereo not drawn) [Monensin A, 4-phenoxyphenylurethane] | 0.2 µg/mL (≈ 0.227 µM) | 0.8 µg/mL (≈ 0.907 µM) | 1.6 µg/mL (≈ 1.81 µM) | 0.4 µg/mL (≈ 0.453 µM) | 0.1 µg/mL (≈ 0.113 µM) | 0.8 µg/mL (≈ 0.907 µM) | 0.4 µg/mL (≈ 0.453 µM) | 0.4 µg/mL (≈ 0.453 µM) | 0.4 µg/mL (≈ 0.453 µM) | 0.4 µg/mL (≈ 0.453 µM) |  |
| CCCCNC(=O)OCC1(O)OC(C2CC(C)C(C3(CC)CCC(C4(C)CCC5(CC(O)C(C)C(C(C)C(OC)C(C)C(=O)O)O5)O4)O3)O2)C(C)CC1C (stereo not drawn) [Monensin A, N-butylurethane] | 0.4 µg/mL (≈ 0.519 µM) | 3.1 µg/mL (≈ 4.03 µM) | 6.3 µg/mL (≈ 8.18 µM) | 0.8 µg/mL (≈ 1.04 µM) | 0.2 µg/mL (≈ 0.26 µM) | 6.3 µg/mL (≈ 8.18 µM) | 1.6 µg/mL (≈ 2.08 µM) | 1.6 µg/mL (≈ 2.08 µM) | 0.2 µg/mL (≈ 0.26 µM) | 0.4 µg/mL (≈ 0.519 µM) |  |
| CCC1(C2OC(C3OC(O)(COC(=O)NC)C(C)CC3C)CC2C)CCC(C2(C)CCC3(CC(O)C(C)C(C(C)C(OC)C(C)C(=O)O)O3)O2)O1 (stereo not drawn) [Monensin A, n-methylurethane] | 12.5 µg/mL (≈ 17.2 µM) |  |  | 6.3 µg/mL (≈ 8.65 µM) | 1.6 µg/mL (≈ 2.2 µM) |  | 25 µg/mL (≈ 34.3 µM) | 25 µg/mL (≈ 34.3 µM) | 6.3 µg/mL (≈ 8.65 µM) | 1.6 µg/mL (≈ 2.2 µM) |  |
| COC(C(C)C(=O)O)C(C)C1OC2(CCC(C)(C3CCC(C)(C4OC(C5OC(O)(COC(=O)NCCc6ccccc6)C(C)CC5C)CC4C)O3)O2)CC(O)C1C (stereo not drawn) [Monensin B, 2-phenethylurethane] | 3.1 µg/mL (≈ 3.86 µM) | 12.5 µg/mL (≈ 15.5 µM) | 25 µg/mL (≈ 31.1 µM) | 3.1 µg/mL (≈ 3.86 µM) | 0.8 µg/mL (≈ 0.995 µM) |  | 6.3 µg/mL (≈ 7.84 µM) | 3.1 µg/mL (≈ 3.86 µM) | 1.6 µg/mL (≈ 1.99 µM) | 3.1 µg/mL (≈ 3.86 µM) | MIC (Treponema hyodysenteriae; 48 hours, 2-phenethylurethane (natural product)): 0.4-2.0 meg/ml; MIC (Treponema hyodysenteriae; 48 hours, 2-phenethylurethane (synthetic product)): 2.0 meg/ml; Day of Maximum Change, Blood Pressure [4]: 2 days; Day of Maximum Change, Heart Rate [4]: 3 days; Maximum Change (%), Blood Pressure [4]: 13%; Maximum Change (%), Heart Rate [4]: 14%; Mean Blood Pressure at time of maximum effect [4]: 189 mm Hg; Mean Blood Pressure before treatment [4]: 216 mm Hg; Rate of Gas Production, Percent Production of Control Fermentations (rumen fluid; 10 ppm): 93%; Total VFA, Percent Production of Control Fermentations (rumen fluid; 10 ppm): 157.8%; Rate of Gas Production, Percent Production of Control Fermentations (rumen fluid; 50 ppm): 92%; Total VFA, Percent Production of Control Fermentations (rumen fluid; 50 ppm): 149.1% |
| COC(C(C)C(=O)O)C(C)C1OC2(CCC(C)(C3CCC(C)(C4OC(C5OC(O)(COC(=O)NC(C)c6ccccc6)C(C)CC5C)CC4C)O3)O2)CC(O)C1C [Monensin B, (S)-1-phenethylurethane] |  |  |  |  |  |  |  |  |  |  | Minimum Inhibitory Concentration (Bacillus sp. TA 27860; Bacillus sp. TA 27860, listed as Monensin B,(S)-1-phenethylurethane): 0.2 meg/ml; Minimum Inhibitory Concentration ([1]; Streptococcus cellulosac 3313, listed as Monensin B,(S)-1-phenethylurethane): 6.3 meg/ml; Minimum Inhibitory Concentration (MycoBacterium phiel 355; MycoBacterium phiel 355): 6.3 meg/ml; Minimum Inhibitory Concentration (Bacillus megaterium 8CU; Bacillus megaterium 8CU, listed as Monensin B,(S)-1-phenethylurethane): 0.4 meg/ml; Minimum Inhibitory Concentration ([2]; Streptococcus faecium 8043, listed as Monensin B,(S)-1-phenethylurethane): 0.2 meg/ml; Minimum Inhibitory Concentration ([3]; Paceilomyces variotl 25820, listed as Monensin B,(S)-1-phenethylurethane): 6.3 meg/ml; Minimum Inhibitory Concentration (Staph. aureus 6538; Staph. aureus 6538, listed as Monensin B,(S)-1-phenethylurethane): 1.6 meg/ml; Minimum Inhibitory Concentration (Sarcina lutca 9341; Sarcina lutca 9341): 1.6 meg/ml; Minimum Inhibitory Concentration (Bacillus sp. E 27859; Bacillus sp. E 27859, listed as Monensin B,(S)-1-phenethylurethane): 0.1 meg/ml; Minimum Inhibitory Concentration (Bacillus subtilis 583; Bacillus subtilis 583 (NRRL)): 0.8 meg/ml |
| CC[C@@]1([C@@H]2O[C@@H]([C@H]3O[C@@](O)(CO)[C@H](C)C[C@@H]3C)C[C@@H]2C)CC[C@H]([C@]2(C)CC[C@]3(C[C@H](O)[C@@H](C)[C@@H]([C@@H](C)[C@@H](OC)[C@H](C)C(=O)O)O3)O2)O1 [Monensin] |  |  |  |  |  |  |  |  |  |  | Rate of Gas Production, Percent Production of Control Fermentations (rumen fluid; 10 ppm): 85%; Total VFA, Percent Production of Control Fermentations (rumen fluid; 10 ppm): 110.7%; Rate of Gas Production, Percent Production of Control Fermentations (rumen fluid; 50 ppm): 89%; Total VFA, Percent Production of Control Fermentations (rumen fluid; 50 ppm): 105.3% |
| Monensin A, 2-phenylurethane |  |  |  |  |  |  |  |  |  |  | MIC (Treponema hyodysenteriae; 48 hours): 0.4 meg/ml |
